{"source": "paper PMC7315563", "about": "“Bioactive fluorenes. Part III: 2,7-dichloro-9H-fluorene-based thiazolidinone and azetidinone analogues as anticancer and antimicrobial against multidrug resistant strains agents” (BMC Chemistry, 2020)", "assay_type_in_all_cases": "cell-based", "key": {"[1]": {"system": "MDA-MB-231 human breast cancer cells", "assay": "cell viability assay (MTT)", "details": "24 h; for viability at 1 µg/mL: read-out: Validity (%) for sample concentrations (µg/mL) 1; for viability at 10 µg/mL: read-out: Validity (%) for sample concentrations (µg/mL) 10; for viability at 31.25 µg/mL: read-out: Validity (%) for sample concentrations (µg/mL) 31.25; for viability at 62.5 µg/mL: read-out: Validity (%) for sample concentrations (µg/mL) 62.5; for viability at 125 µg/mL: read-out: Validity (%) for sample concentrations (µg/mL) 125; for viability at 250 µg/mL: read-out: Validity (%) for sample concentrations (µg/mL) 250; for viability at 500 µg/mL: read-out: Validity (%) for sample concentrations (µg/mL) 500", "outline": "(§1)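 Cells were grown in RPMI-1640 with 10% heat-inactivated FBS, seeded at 5000 cells/well, and next day exposed to fluorene derivatives at 0, 1, 10, 31.25, 62.5, 125, 250 or 500 µg/mL for 24 h. Viability was then measured by MTT, absorbance at 570 nm.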"}, "[2]": {"system": "WI-38 human normal fibroblast cells", "assay": "cell viability assay (MTT)", "details": "24 h; for viability at 31.25 µg/mL: read-out: Validity (%) for sample concentrations (µg/mL) 31.25; for viability at 62.5 µg/mL: 62.50 µg/mL, read-out: Validity (%) for sample concentrations (µg/mL) 62.50; for viability at 125 µg/mL: read-out: Validity (%) for sample concentrations (µg/mL) 125; for viability at 250 µg/mL: read-out: Validity (%) for sample concentrations (µg/mL) 250; for viability at 500 µg/mL: read-out: Validity (%) for sample concentrations (µg/mL) 500", "outline": "as §1"}, "[3]": {"system": "K. pneumoniae", "assay": "MIC by broth microdilution method (resazurin end point)", "details": "Klebsiella pneumoniae, 24 h at 37 °C", "procedure": "(§2) Determination of Minimum inhibitory concentrations (MIC) of flourene derivatives was done using broth microdilution method. The procedure involved preparation of twofold dilutions of the fluorene derivatives ranging from (500–7.8 μg/mL) in sterile Mueller–Hinton broth inside the wells of 96-well microplate (Sarstedt, Germany). The inoculums of test strains prepared from fresh overnight cultures were adjusted to 0.5 McFarland standards, which equals to 1–2 × 10^8 CFU/mL for bacteria, the procedure was done according to CLSI 2012 [42]. […] For this assay the positive control agents were vancomycin (range: 0.7–50 μg/mL), gentamicin (range: 0.15–10 μg/mL) and the negative control was 1% DMSO.\n(§3) For proper determination of the MIC end point resazurin dye has been used. A stock solution of resazurin sodium salt powder (Titan Biotech) was prepared at 0.02% (wt/vol) in distilled water, sterilized by filtration through a […] filter into a sterile light protected container then stored protected from light at 4 °C for up to 1 week, or at − […] for long term use, then 10–15% resazurin solution of the total volume in wells was added to each well and incubation for 1–4 h at 37 °C was done. A change in color from blue to pink indicates the growth of bacteria, and MIC was defined as the lowest concentration of the drug that prevented this change in color."}, "[4]": {"system": "E. coli", "assay": "MIC by broth microdilution method (resazurin end point)", "details": "Escherichia coli, 24 h at 37 °C", "procedure": "as §2, §3"}, "[5]": {"system": "Escherichia coli (E. coli), multidrug resistant clinical isolate", "assay": "agar well diffusion assay", "details": "24 h, 500 µg/mL of tested compound", "outline": "(§4)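 Multidrug-resistant clinical isolates swabbed on Mueller–Hinton agar at about 1–5 × 10^5 CFU/mL; 0.5 cm wells received 50 μL compound at 500 μg/mL in 1% DMSO. Incubation 24 h, 37 °C for bacteria and C. albicans, 25 °C for Aspergillus; inhibition zone diameter measured in mm.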"}, "[6]": {"system": "Streptococcus pneumoniae (S. pneumoniae), multidrug resistant clinical isolate", "assay": "agar well diffusion assay", "details": "S. pneumoniae; 500 µg/mL of tested compound; 24 h", "outline": "as §4"}, "[7]": {"system": "methicillin-resistant Staphylococcus aureus (MRSA)", "assay": "agar well diffusion assay", "details": "500 µg/mL of tested compound, 24 h", "outline": "as §4"}, "[8]": {"system": "P. aeruginosa", "assay": "MIC by broth microdilution method (resazurin end point)", "details": "Pseudomonas aeruginosa, 24 h at 37 °C", "procedure": "as §2, §3"}}}
{"molecule": "O=C1C(Cl)C(c2ccc(Cl)cc2)N1c1nc(-c2cc(Cl)cc3c2-c2ccc(Cl)cc2C3)cs1", "note": "(centres unmarked) [6c, 3-Chloro-4-(4-chlorophenyl)-1-(4-(2,7-dichloro-9H-fluoren-4-yl)thiazol-2-yl)azetidin-2-one]", "values": [{"measurement": "viability at 1 µg/mL", "setting": "[1]", "result": 92.8, "unit": "%"}, {"measurement": "viability at 10 µg/mL", "setting": "[1]", "result": 77.8, "unit": "%"}, {"measurement": "viability at 31.25 µg/mL", "setting": "[1]", "result": 63.1, "unit": "%"}, {"measurement": "viability at 62.5 µg/mL", "setting": "[1]", "result": 53.1, "unit": "%"}, {"measurement": "viability at 125 µg/mL", "setting": "[1]", "result": 46, "unit": "%"}, {"measurement": "viability at 250 µg/mL", "setting": "[1]", "result": 29.4, "unit": "%"}, {"measurement": "viability at 500 µg/mL", "setting": "[1]", "result": 24.8, "unit": "%"}, {"measurement": "IC50", "setting": "[1]", "result": 104, "unit": "µg/mL"}, {"measurement": "viability at 31.25 µg/mL", "setting": "[2]", "result": 94.5, "unit": "%"}, {"measurement": "viability at 62.5 µg/mL", "setting": "[2]", "result": 65.9, "unit": "%"}, {"measurement": "viability at 125 µg/mL", "setting": "[2]", "result": 63.4, "unit": "%"}, {"measurement": "viability at 250 µg/mL", "setting": "[2]", "result": 59.5, "unit": "%"}, {"measurement": "viability at 500 µg/mL", "setting": "[2]", "result": 55.5, "unit": "%"}, {"measurement": "IC50", "setting": "[2]", "result": "> 500", "unit": "µg/mL"}, {"measurement": "MIC", "setting": "[3]", "result": 125, "unit": "µg/mL"}, {"measurement": "MIC", "setting": "[4]", "result": 62.5, "unit": "µg/mL"}, {"measurement": "zone of inhibition at 500 µg/mL", "setting": "[5]", "result": 15, "unit": "mm"}]}
{"molecule": "O=C1C(Cl)C(c2ccc(Br)cc2)N1c1nc(-c2cc(Cl)cc3c2-c2ccc(Cl)cc2C3)cs1", "note": "(centres unmarked) [6d, 4-(4-Bromophenyl)-3-chloro-1-(4-(2,7-dichloro-9H-fluoren-4-yl)thiazol-2-yl)azetidin-2-one]", "values": [{"measurement": "viability at 1 µg/mL", "setting": "[1]", "result": 93.3, "unit": "%"}, {"measurement": "viability at 10 µg/mL", "setting": "[1]", "result": 89.1, "unit": "%"}, {"measurement": "viability at 31.25 µg/mL", "setting": "[1]", "result": 75.8, "unit": "%"}, {"measurement": "viability at 62.5 µg/mL", "setting": "[1]", "result": 63.3, "unit": "%"}, {"measurement": "viability at 125 µg/mL", "setting": "[1]", "result": 53.1, "unit": "%"}, {"measurement": "viability at 250 µg/mL", "setting": "[1]", "result": 27.7, "unit": "%"}, {"measurement": "viability at 500 µg/mL", "setting": "[1]", "result": 24, "unit": "%"}, {"measurement": "IC50", "setting": "[1]", "result": 169, "unit": "µg/mL"}, {"measurement": "viability at 31.25 µg/mL", "setting": "[2]", "result": 92, "unit": "%"}, {"measurement": "viability at 62.5 µg/mL", "setting": "[2]", "result": 88.1, "unit": "%"}, {"measurement": "viability at 125 µg/mL", "setting": "[2]", "result": 78.6, "unit": "%"}, {"measurement": "viability at 250 µg/mL", "setting": "[2]", "result": 67.5, "unit": "%"}, {"measurement": "viability at 500 µg/mL", "setting": "[2]", "result": 67.7, "unit": "%"}, {"measurement": "IC50", "setting": "[2]", "result": "> 500", "unit": "µg/mL"}, {"measurement": "Mean zone of inhibition", "setting": "[6]", "result": "no activity"}, {"measurement": "Mean zone of inhibition", "setting": "[7]", "result": "no activity"}]}
{"molecule": "O=C1C(Cl)C(c2cccs2)N1c1nc(-c2cc(Cl)cc3c2-c2ccc(Cl)cc2C3)cs1", "note": "(centres unmarked) [6k, 3-Chloro-1-(4-(2,7-dichloro-9H-fluoren-4-yl)thiazol-2-yl)-4-(thiophen-2-yl)azetidin-2-one]", "values": [{"measurement": "viability at 1 µg/mL", "setting": "[1]", "result": 96.4, "unit": "%"}, {"measurement": "viability at 10 µg/mL", "setting": "[1]", "result": 90.7, "unit": "%"}, {"measurement": "viability at 31.25 µg/mL", "setting": "[1]", "result": 78.6, "unit": "%"}, {"measurement": "viability at 62.5 µg/mL", "setting": "[1]", "result": 69.6, "unit": "%"}, {"measurement": "viability at 125 µg/mL", "setting": "[1]", "result": 51, "unit": "%"}, {"measurement": "viability at 250 µg/mL", "setting": "[1]", "result": 33.3, "unit": "%"}, {"measurement": "viability at 500 µg/mL", "setting": "[1]", "result": 19.1, "unit": "%"}, {"measurement": "IC50", "setting": "[1]", "result": 131, "unit": "µg/mL"}, {"measurement": "viability at 31.25 µg/mL", "setting": "[2]", "result": 77.9, "unit": "%"}, {"measurement": "viability at 62.5 µg/mL", "setting": "[2]", "result": 64, "unit": "%"}, {"measurement": "viability at 125 µg/mL", "setting": "[2]", "result": 61.3, "unit": "%"}, {"measurement": "viability at 250 µg/mL", "setting": "[2]", "result": 60.3, "unit": "%"}, {"measurement": "viability at 500 µg/mL", "setting": "[2]", "result": 58.3, "unit": "%"}, {"measurement": "IC50", "setting": "[2]", "result": "> 500", "unit": "µg/mL"}, {"measurement": "MIC", "setting": "[8]", "result": 125, "unit": "µg/mL"}, {"measurement": "MIC", "setting": "[4]", "result": 31.2, "unit": "µg/mL"}, {"measurement": "zone of inhibition at 500 µg/mL", "setting": "[5]", "result": 14, "unit": "mm"}]}
